Structures can show the parent of a compound that is named as a salt.
Legend:
[1] = assay type: physicochemical; conditions: for t1/2 at 25° C.: table; for t1/2 at 25° C. / k at 25° C.: thermal decomposition in xylene
Method: Rates for thermal decomposition of the stable dioxetanes were monitored by the decay of chemiluminescence of aerated solutions. A cylindrical Pyrex vial equipped with magnetic stir bar was filled with 3-4 mL of the reaction solvent, sealed with a Teflon-lined screw cap and placed in the thermostatted sample block of the chemiluminescence-measuring luminometer. Temperature control was provided by an external circulating water bath. Appropriate values for the instrument gain and optical slit size were selected. […]. The vial was sealed with a Teflon-lined screw cap to prevent evaporation when high temperatures were used. Measurement of the signal was begun by opening the shutter. The chemiluminescent decay was generally recorded for at least three half-lives. Calculation of the first-order rate constant (k) from the In (Intensity) vs. time data was performed by a computer program utilizing a standard least-squares treatment. The correlation coefficient (r) was typically at least 0.999 and k varied less than 5% between replicate samples.
Activation parameters for decomposition of the dioxetanes were calculated from plots of In k vs. 1/T (Arrhenius eq.) or In k/t vs. 1/T (Eyring eq.) by a standard least-squares linear regression analysis.

[2] = tested on: alkaline phosphatase from bovine intestinal mucosa; assay: Triggering of xanthenone phosphate dioxetane with alkaline phosphatase from bovine intestinal mucosa; assay type: biochemical; conditions: 4.2×10^-6 M dioxetane, 1.8 μg/mL protein, pH 10.3, 37° C.
Method: Triggering experiments were conducted using alkaline phosphatase from bovine intestinal mucosa [suspension of 5.3 mg of protein (1100 units/mg protein) per mL in 3.2 M (NH4)2 SO4 ] and the phosphate-protected dioxetane at pH 10.3 in 0.75 M 2-amino-2-methyl- 1-propanol buffer. […]. The rate of decay of the emission is a function of enzyme concentration while the total light emission is independent of the enzyme concentration because of turnover of the enzyme.

firefly luciferase = firefly luciferase system; cited from earlier work
[3] = Base-triggered chemiluminescence in DMSO or water; conditions: 10^-4 M, DMSO, excess tetra-n-butylammonium hydroxide
urease = assay: Triggering of 2a with urease in the presence of fluorescent micelles; assay type: biochemical; conditions: 10 μL of 3×10^-3 M 2a, CTAB, fluorescein surfactant 3, urea
Method: 5. Enzymatic Triggering of Hydroxy-Substituted Dioxetane 2a with Urease in the Presence of Fluorescent Micelles. A solution was prepared using 160 mg of CTAB and 12.4 mg of fluorescein surfactant 3 in 200 mL of distilled water. A urea solution was made by dissolving 200 mg of urea in 100 mL of distilled water with EDTA added to give a final concentration of 0.4 mM. The substrate solution for the urease experiments was obtained by mixing 10mL of each stock solution.
Experiments were carried out with urease (Sigma) by incubation at room temperature for periods of 0.5 to 2 hours. […] The intensity of the luminescence provided a measure of the concentration of urease.

[4] = tested on: alkaline phosphatase from bovine intestinal mucosa; assay: Triggering of 2c with alkaline phosphatase from bovine intestinal mucosa; assay type: biochemical
Excerpt: The chemiluminescence quantum yield (.PHI.CL) for the decomposition of dioxetanes is defined as the ratio of einsteins of chemiluminescence emitted to moles of dioxetane decomposed. Sufficient energy is released during the reaction from the reaction enthalpy (ΔHR) plus the Arrhenius activation energy (Ea) to populate the singlet excited state of one of the carbonyl cleavage products. Therefore, the maximum quantum yield is 1.0. Another parameter of interest is the chemiexcitation quantum yield (.PHI.CE) which is defined as the ratio of excited states formed to dioxetane decomposed.
The same procedure as those employed in the measurement of the decay kinetics was used for the determination of chemiluminescence quantum yields with the following modifications. An accurately measured aliquot of a dioxetane stock solution of known concentration was added to 3 mL of the pre-thermostatted organic solvent or aqueous buffer. The reaction was then triggered by adding the appropriate chemical reagent or enzyme. […]
Enzymatic triggering experiments such as those described above were also carried out in Immumlon™ microtitre wells from Dynatech, Inc. made of transparent polystyrene. […] The chemiluminescence was detected at the bottom of the well using a fiber optic connected to the photon-counting luminometer described previously. […]

[5] = tested on: Alkaline Phosphatase from Human Blood Serum; assay: Triggering of 2c with alkaline phosphatase from human blood serum; assay type: biochemical; conditions: 10^-5 M 2c, 100 μL serum, pH 10.3, 37° C.
Method: 1. Triggering the Chemiluminescence of 2c with Alkaline Phosphatase from Human Blood Serum. A stock solution of dioxetane 2c was prepared in dioxane/water (1:1 v/v) by photooxygenation of 1c. A sample of fresh blood was drawn from a healthy donor and the red blood cells removed by centrifugation to provide serum for the experiments. Treatment of 3 mL of a 10^-5 M solution of 2c in 0.75 M 2-amino-2-methyl-1-propanol (221) buffer (pH 10.3) at 37° C. with 100 μL of serum led to the typical intensity vs. time profile shown in FIG. 3 where the serum is injected at time zero. Under these conditions the light intensity reaches a constant level of approximately 2.3×10^4 counts/sec. The background luminescence signal from non-enzymatic hydrolysis of 2c is less than 0.05% of the enzyme-generated value.

## COC1(c2cccc(O[Si](C)(C)C(C)(C)C)c2)OOC12C1CC3CC(C1)CC2C3 (stereo not drawn)
[1]; General Description dioxetanes
  half-life at 25° C.: 3.8 years
[1]; o-xylene, laboratory bench, several months
  decomposition on standing: no detectable decomposition

## O=P(O)(O)Oc1ccc2c(c1)Oc1ccccc1C21OOC12C1CC3CC(C1)CC2C3 (stereo not drawn)
[2]
  duration of chemiluminescence decay: 3 min

## CCCCCCCCCCCCCCCC[N+](C)(C)C.[Br-] [CTAB, cetyltrimethylammonium bromide]
Firefly luciferase
  inhibition of the catalytic activity of the luciferase: complete inhibition

## COC1(c2cccc(O)c2)OOC12C1CC3CC(C1)CC2C3 (stereo not drawn) [dioxetane 2a, 4-(3-Hydroxyphenyl)-4-methoxyspiro[1,2-dioxetane-3,2'-adamantane]]
[1]
  t1/2 at 25° C.: 4.1 yrs
  k at 25° C.: 5.38e-09 s⁻¹
[3]
  duration of chemiluminescence decay: several minutes
urease
  chemiluminescence after incubation with urease: produced chemiluminescence

## COC1(c2cccc(OC(C)=O)c2)OOC12C1CC3CC(C1)CC2C3 (stereo not drawn) [dioxetane 2b]
[1]
  t1/2 at 25° C.: 13 yrs
  k at 25° C.: 1.73e-09 s⁻¹

## COC1(c2cccc(OP(=O)(O)O)c2)OOC12C1CC3CC(C1)CC2C3 (stereo not drawn) [dioxetane 2c, 4-Methoxy-4-(3-phosphatephenyl)spiro[1,2-dioxetane-3,2'-adamantane], disodium salt]
[1]
  t1/2 at 25° C.: 19 yrs
  k at 25° C.: 1.19e-09 s⁻¹
[4]; 2c, CTAB and 3 in 200 μL 221 buffer, assuming enzyme purity of 10%
  detection of alkaline phosphatase: less than 0.2 attomoles
[4]; with CTAB and 3, 12 pg/mL protein
  period of chemiluminescence: 45 min
[5]
  light intensity at plateau: approximately 2.3×10^4 counts/sec

From US5004565A, “Method and compositions providing enhanced chemiluminescence from 1,2-dioxetanes” (priority 1988, dated 1991)
